In patent US9452217B2, “Methods for potentiating immune response for the treatment of infectious diseases and cancer” (Nitor Therapeutics, priority 2013, dated 2016):

Key:
human TLR2 = biological target: T1, human TLR2 (Homo sapiens, UniProt O60603); assay: TLR ligand screening: NF-κB activation (SEAP reporter) in HEK293 cells expressing TLR2; assay type: cell-based; details: one concentration: Guanosine 100 uM, NTR001 10 uM, Inosine 100 uM; FIG. 2
T1 construct: expressed in transfected cells; host or cells: HEK293
T1 sequence (O60603 21-784): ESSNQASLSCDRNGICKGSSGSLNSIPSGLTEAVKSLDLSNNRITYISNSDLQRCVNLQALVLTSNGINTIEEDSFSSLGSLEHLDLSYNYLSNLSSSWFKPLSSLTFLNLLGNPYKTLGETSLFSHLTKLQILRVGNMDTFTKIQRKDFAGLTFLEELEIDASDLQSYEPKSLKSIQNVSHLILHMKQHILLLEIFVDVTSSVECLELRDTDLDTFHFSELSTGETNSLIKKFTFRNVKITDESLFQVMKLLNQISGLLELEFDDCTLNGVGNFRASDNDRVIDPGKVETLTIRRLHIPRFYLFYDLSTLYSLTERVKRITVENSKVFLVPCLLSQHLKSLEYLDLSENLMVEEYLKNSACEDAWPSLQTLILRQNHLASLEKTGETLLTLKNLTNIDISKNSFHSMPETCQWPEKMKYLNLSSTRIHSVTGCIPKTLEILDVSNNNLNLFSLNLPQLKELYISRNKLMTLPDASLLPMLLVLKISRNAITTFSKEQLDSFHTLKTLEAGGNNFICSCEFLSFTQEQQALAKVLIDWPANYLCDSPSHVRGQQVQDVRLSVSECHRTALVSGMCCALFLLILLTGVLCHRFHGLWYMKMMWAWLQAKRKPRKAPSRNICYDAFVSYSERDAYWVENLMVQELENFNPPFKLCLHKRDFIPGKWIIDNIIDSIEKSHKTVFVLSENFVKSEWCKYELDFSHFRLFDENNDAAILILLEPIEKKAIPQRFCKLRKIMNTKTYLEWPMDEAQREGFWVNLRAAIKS
Method: (§1) Method: TLR stimulation is tested by assessing NF-κB activation in HEK293 cells expressing a given TLR. The Secreted Embryonic Alkaline Phosphatase (SEAP) reporter is under the control of a promoter inducible by the transcription factor NF-κB. This reporter gene allows the monitoring of signaling through the TLR, based on the activation of NF-κB. The compounds are evaluated at one concentration and compared to control ligands. This step is performed in triplicate.

human TLR4 = biological target: T2, human TLR4 (Homo sapiens, UniProt O00206+Q9Y6Y9); assay: TLR ligand screening: NF-κB activation (SEAP reporter) in HEK293 cells expressing TLR4; assay type: cell-based; details: one concentration: Guanosine 100 uM, NTR001 10 uM, Inosine 100 uM; FIG. 2
T2 construct: expressed in transfected cells; host or cells: HEK293
T2 sequence (O00206 24-839): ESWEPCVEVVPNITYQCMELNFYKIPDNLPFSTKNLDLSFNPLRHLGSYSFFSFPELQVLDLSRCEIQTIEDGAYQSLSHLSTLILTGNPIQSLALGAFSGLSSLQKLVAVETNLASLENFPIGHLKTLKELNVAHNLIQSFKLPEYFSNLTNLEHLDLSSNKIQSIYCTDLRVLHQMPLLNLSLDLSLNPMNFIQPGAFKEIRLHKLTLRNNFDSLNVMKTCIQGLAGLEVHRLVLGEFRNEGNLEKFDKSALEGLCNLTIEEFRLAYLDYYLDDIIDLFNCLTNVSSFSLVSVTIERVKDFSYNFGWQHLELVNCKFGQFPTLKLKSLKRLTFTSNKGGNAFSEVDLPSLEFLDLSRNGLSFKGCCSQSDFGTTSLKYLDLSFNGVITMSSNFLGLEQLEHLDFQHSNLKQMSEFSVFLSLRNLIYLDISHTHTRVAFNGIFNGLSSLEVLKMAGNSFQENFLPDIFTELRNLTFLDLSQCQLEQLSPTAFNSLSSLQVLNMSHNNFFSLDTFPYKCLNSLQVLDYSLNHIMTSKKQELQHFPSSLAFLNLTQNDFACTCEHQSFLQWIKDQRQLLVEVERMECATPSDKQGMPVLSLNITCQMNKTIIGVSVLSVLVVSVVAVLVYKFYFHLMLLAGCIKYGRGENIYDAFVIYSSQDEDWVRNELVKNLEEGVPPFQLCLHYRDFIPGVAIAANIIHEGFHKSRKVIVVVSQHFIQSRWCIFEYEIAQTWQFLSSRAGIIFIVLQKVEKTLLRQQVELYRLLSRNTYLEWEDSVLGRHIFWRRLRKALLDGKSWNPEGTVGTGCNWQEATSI
T2 sequence (Q9Y6Y9 17-160 limits assumed): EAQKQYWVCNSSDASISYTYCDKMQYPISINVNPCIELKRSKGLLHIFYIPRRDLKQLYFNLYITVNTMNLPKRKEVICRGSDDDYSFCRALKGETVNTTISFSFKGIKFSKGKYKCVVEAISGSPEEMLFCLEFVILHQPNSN
Method: as §1

B16 tumors = assay: Syngeneic mouse melanoma model; assay type: in vivo, C57BL/6 mice; details: cyclophosphamide 100 mg/kg IP single dose; FIG. 6
Method: Method: Cancer cells were injected subcutaneously in right flank of each mouse, 1×10^4 cells in 0.1 ml PBS with 20% Matrigel. Treatment with the NTR001 was initiated on day 6 after injection of tumor cells. Tumor volume and survival were recorded every 3-4 days.

HCV = details: chronically HCV infected patients; cited from earlier work
[1] = tested on: endogenous interferon-a (IFN-a); details: healthy volunteers, oral; cited from earlier work
[2] = tested on: immune response to tetanus toxoid vaccine; assay: PNPi as adjuvant in tetanus toxoid vaccine efficacy study (mouse); assay type: in vivo; details: mice, p.o., ELISA
[3] = tested on: L. monocytogenes (ATCC Strain35152, hemolytic substrain); assay: Mouse model of L. monocytogenes infection; details: Balb/c mice infected i.v. with 1×10^6 CFU; 30 mg/kg PO or IP, 2 mg/kg drinking water; FIGS. 7 and 9

Nc1nc2c(ncn2[C@@H]2O[C@H](CO)[C@@H](O)[C@H]2O)c(=O)[nH]1 [Guanosine]
stimulatory effect on human TLR2 (human TLR2): significant stimulatory effect | stimulatory effect on human TLR4 (human TLR4): significant stimulatory effect

O=P1(N(CCCl)CCCl)NCCCO1 (centres unmarked) [Cyclcophosphamide, cyclophosphamide]
survival (B16 tumors): 30%

CC(=O)O[C@@H]1C[C@@H](CO)O[C@H]1n1c(=O)sc2cnc(N)nc21 [ANA773]
HCV RNA (HCV): dose dependent reduction | induction of endogenous interferon-a [1]: induction of endogenous interferon-a (IFN-a) of multiple subtypes

O=c1[nH]cnc2c(CN3C[C@H](CO)[C@@H](O)C3)c[nH]c12 [NTR002, 1,5-dihydro-7-[[(3R,4R)-3-hydroxy-4-(hydroxymethyl)pyrrolidin-1-yl]methyl]-4H-pyrrolo [3,2-d]pyrimidin-4-one]
serum tetanus toxoid antibody titers compared to the vehicle treated group ([2]; 30 mg/kg (6 days of treatment) and 60 mg/kg (3 days of treatment), day 38, FIG. 3): significantly elevated | serum interferon-g compared to the vehicle treated group ([2]; high dose group 60 mg/kg, day 30, FIG. 4): elevated | weight loss [3]: significant decrease in weight loss
